Experimental data reported in patent US12042478B2, “(R)-2-[(2H-1,3-benzodioxol-5-yl)methyl]pyrrolidine and processes for preparation, compositions and uses thereof” (Pharmala Biotech Inc., priority 2022, dated 2024).

How the values were obtained:
C57 and BTBR mice [1] = assay: Conditioned place preference; assay type: in vivo, mouse
Protocol: The same 2-compartment chambers as described above in the social preference studies for conditioned place preference. For these studies, compartments are differentiated by floor texture (rough black plastic vs steel punch plate) and wall pattern (vertical vs. horizontal stripes.) An initial preference/habituation test was first run where mice were able to freely traverse the apparatus for 30 minutes. The following day, mice were assigned to receive saline in one compartment and drug in the other. Saline pairings occurred in the morning, drug pairings occurred in the afternoon, and were separated by at least 4 hours, during which time mice returned to their home cages. Three such pairings were performed, where mice were injected, returned to the home cage for a 15 min pretreatment period, then confined to the injection-appropriate compartment for 30 minutes. Half the subjects (within strain) received drug pairings on the plastic floor+vertical stripes side, and the other half received drug pairings on the punch plate floor+horizontal stripes side. […] The post-conditioning preference test was identical to the initial preference/habituation session, where mice were freely able to traverse the apparatus for 30 minutes. Time spent in each compartment was recorded, and expressed as a preference score for the drug paired side (calculated as time spent in that compartment during the post-test—time spent there during the pre-test.) All preference and conditioning sessions were conducted under the same low light conditions as in the social preference tests.

DAT = DAT (Homo sapiens, UniProt Q01959); assay: QSAR model predicted IC50, DAT; details: ratio = 1/DAT IC50:1/SERT IC50, from predicted IC50
Protocol: In silico studies (QSAR and docking) are useful tools to understand drug mechanisms, and they are relatively cheaper and faster than experiments. A QSAR model was created for each monoamine transporter. Additionally, the docking properties of phenethylamines were investigated.
QSAR: DAT, SERT and NET IC50 values were collected from the literature for 73 phenethylamines. Three different software's were used for descriptor calculations, and almost 2000 descriptors were calculated. Highly correlated descriptors were eliminated before multi-linear regression (MLR) analysis. All descriptors were merged with experimental inhibition values in QSARiNS software. The multi-Criteria Decision-Making tool of QSARiNS was used to pick the best model.
The predicted IC^50 (mM) values of the test molecules generated based on the QSAR developed as described above are presented in Table 4.

C57 and BTBR mice [2] = assay: Social preference procedure: social novelty preference test; assay type: in vivo, mouse
Protocol: (§1) All drugs were dissolved in physiological 0.9% saline and administered at a constant volume of 1 ml/100 g body weight. Because all drugs utilized in these studies were synthesized as hydrochloride (HCl) salts, they were weighed as salts prior to the preparation of all solutions. All drugs at all concentrations are readily dissolved in an aqueous solution at normal pH. Injections of all drugs were administered intraperitoneally (IP) to mimic pharmacokinetic parameters typical of oral administration, without the behaviour-impairing effects of gavage stress.
(§2) This assay was conducted in adult male C57 and BTBR mice (n=6 per group) in a dedicated conditioning room where ambient light, sound, and human contact were tightly controlled.
Social preference chambers consisted of two polycarbonate boxes (13.5 cm wide×22.5 cm tall×31.0 cm deep), floored with rough-textured black ABS plastic, and connected to one another by a 1.25″ PVC T-junction. An infrared photobeam emitter/detector array was mounted at each intersection of the T-junction and each preference compartment, and as a mouse traversed the apparatus, it would break the photobeam upon entry to or exit from each preference compartment. Beam breaks started or stopped a counter on an interfaced computer, allowing automated collection of time spent in each compartment. […]

C57 and BTBR mice [3] = assay: Social preference procedure: novelty preference test; assay type: in vivo, mouse; details: 1 mg/kg IP
Protocol: as §1, §2
Social preference chambers consisted of two polycarbonate boxes (13.5 cm wide×22.5 cm tall×31.0 cm deep), floored with rough-textured black ABS plastic, and connected to one another by a 1.25″ PVC T-junction. An infrared photobeam emitter/detector array was mounted at each intersection of the T-junction and each preference compartment, and as a mouse traversed the apparatus, it would break the photobeam upon entry to or exit from each preference compartment. Beam breaks started or stopped a counter on an interfaced computer, allowing automated collection of time spent in each compartment. At the end of each test, data were reported as time (in seconds) spent in each compartment, the number of entries into each compartment, and the average time spent in each compartment following an entry. Social preference tests were conducted in an iterative manner, with each test subject completing four distinct phases as described below. Between testing sessions, chambers were sanitized by wiping the insides with a disinfectant product provided by the UAMS Department of Laboratory Animal Medicine. At the end of the week (upon completion of all phases of the procedure), each apparatus was disassembled and all parts were sanitized. No food or water were available during social preference sessions, but were available in the home cage immediately afterwards. […]

C57 and BTBR mice [4] = assay: Social preference procedure: sociability test; assay type: in vivo, mouse; details: 1 mg/kg IP
Protocol: as §1, §2
(§3) Social preference chambers consisted of two polycarbonate boxes (13.5 cm wide×22.5 cm tall×31.0 cm deep), floored with rough-textured black ABS plastic, and connected to one another by a 1.25″ PVC T-junction. An infrared photobeam emitter/detector array was mounted at each intersection of the T-junction and each preference compartment, and as a mouse traversed the apparatus, it would break the photobeam upon entry to or exit from each preference compartment. Beam breaks started or stopped a counter on an interfaced computer, allowing automated collection of time spent in each compartment. At the end of each test, data were reported as time (in seconds) spent in each compartment, the number of entries into each compartment, and the average time spent in each compartment following an entry. Social preference tests were conducted in an iterative manner, with each test subject completing four distinct phases as described below. Between testing sessions, chambers were sanitized by wiping the insides with a disinfectant product provided by the UAMS Department of Laboratory Animal Medicine. At the end of the week (upon completion of all phases of the procedure), each apparatus was disassembled and all parts were sanitized. No food or water were available during social preference sessions, but were available in the home cage immediately afterwards.
A single sociability session occurred the day after the novelty preference test, where one compartment contained a wire mesh cup with a dummy mouse inside while the other compartment contained a male NIH Swiss stranger mouse inside the previously empty cup (see FIG. 4). […] The position of the dummy mouse (left or right compartment) remained the same for each subject as during the novelty test the day before, thereby counterbalancing the position of the stranger mouse across subjects. NIH Swiss stranger mice were similar in mass and appearance to the dummy PVC mice, and were housed separately from the experimental subjects (C57 and BTBR mice) in the colony facility. The first time the experimental subjects ever encountered the stranger mice was when they entered the compartment where they were contained. During this session, mice were weighed, administered the same injection as the day before, and returned to their home cage for a 30 min pretreatment period. Mice were then introduced into the T-junction and allowed to explore both preference compartments for 15 minutes. Sociability tests always occurred on Wednesdays or Thursdays to prevent any weekend testing.

C57 and BTBR mice [5] = assay: Compartment entries during social novelty test (proxy for locomotor stimulant effects); assay type: in vivo, mouse; details: 1 mg/kg, C57 mice, relative to saline
Source text: as §3
Quantifying total entries into the preference compartments provides a proxy measurement for locomotor stimulant effects of the various doses of the various test drugs. This establishes a limit to the drug doses that can be tested in the social preference procedure, as induction of locomotor stimulant effects confounds preference assessments (because mice stop attending to the social stimuli in each compartment and instead spend their time engaged in locomotor behavior.) Motor activity varies across the distinct phases of social preference testing, in part because the habituation session is twice as long (30 minutes) as the novelty, sociability, and social novelty tests (15 minutes each), but also because mice emit high levels of exploratory behavior in novel environments. Thus, as familiarity with the test apparatus increases over successive exposures to the chambers, the number of entries decreases.
(Note that entries were collected for every test, but drug effects on entries during earlier phases may be less reliable due to the confounding influence of changing familiarity with the apparatus across phases.)

[6] = 3 mg/kg, x3 pairings, C57 and BTBR mice

Chain of DAT (Q01959 whole entry, species assumed): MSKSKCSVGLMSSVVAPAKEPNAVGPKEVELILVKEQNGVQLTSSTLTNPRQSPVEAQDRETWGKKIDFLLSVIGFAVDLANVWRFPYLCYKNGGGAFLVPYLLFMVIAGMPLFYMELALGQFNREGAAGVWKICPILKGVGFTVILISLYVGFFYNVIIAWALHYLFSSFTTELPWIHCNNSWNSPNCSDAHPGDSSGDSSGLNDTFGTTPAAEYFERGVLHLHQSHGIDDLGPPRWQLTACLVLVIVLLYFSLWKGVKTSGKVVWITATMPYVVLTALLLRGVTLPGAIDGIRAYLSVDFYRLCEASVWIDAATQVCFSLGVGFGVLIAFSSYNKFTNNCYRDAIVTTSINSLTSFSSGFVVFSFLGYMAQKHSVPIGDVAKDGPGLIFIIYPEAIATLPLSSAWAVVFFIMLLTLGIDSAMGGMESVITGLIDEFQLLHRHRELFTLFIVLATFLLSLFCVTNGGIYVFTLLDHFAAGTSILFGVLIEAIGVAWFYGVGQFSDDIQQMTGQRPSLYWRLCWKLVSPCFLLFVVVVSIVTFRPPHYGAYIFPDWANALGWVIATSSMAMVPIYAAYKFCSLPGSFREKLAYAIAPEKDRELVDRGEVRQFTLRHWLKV

CN[C@@H](C)Cc1ccccc1 [S-methamphetamine, reference compound]
place conditioning (place preference) (C57 and BTBR mice [1]; 1.0 and 3.0 mg/kg, x3 pairings, C57 and BTBR mice): significant place preferences in C57 mice only

CN[C@H](C)Cc1ccc2c(c1)OCO2 [R-MDMA, reference compound]
DAT/SERT (calculated) (DAT): 0.010
place conditioning (place preference) (C57 and BTBR mice [1]; 10 mg/kg, either strain): no significant effects

c1cc2c(cc1CC1CCCN1)OCO2 (racemic) [(R/S)-I, (R/S)-2-[(2H-1,3-benzodioxol-5-yl)methyl]pyrrolidine]
pro-social response (time with stranger mouse, social novelty preference) (C57 and BTBR mice [2]; 1 mg/kg): strongest pro-social response
pro-social response (time with stranger mouse, social novelty preference) (C57 and BTBR mice [2]; 1.8 mg/kg): the response drops

CNC(C)Cc1ccc2c(c1)OCO2 (racemic) [racemic MDMA, 1-(1,3-benzodioxol-5-yl)-N-methylpropan-2-amine, reference compound]
effect on novelty preference (time spent with dummy mouse) (C57 and BTBR mice [3]): no systematic effects
sociability (time spent with stranger mouse) (C57 and BTBR mice [4]; BTBR mice): minor increase in the sociability response
sociability (time spent with stranger mouse) (C57 and BTBR mice [4]; C57 mice): no impact
total entries during social novelty test (C57 and BTBR mice [5]): no effect
place conditioning (place preference) (C57 and BTBR mice [1]; [6]): significant place preferences

CN[C@@H](C)Cc1ccc2c(c1)OCO2 [S-MDMA, reference compound]
DAT/SERT (calculated) (DAT): 0.383
place conditioning (place preference) (C57 and BTBR mice [1]; [6]): significant place preferences
